Measured values reported in patent US20200131180A1, “POSITIVE ALLOSTERIC MODULATORS OF THE MUSCARINIC ACETYLCHOLINE RECEPTOR M1” (Vanderbilt University, priority 2018, published 2020).

Target: T1, human mAChR M1 (Homo sapiens, UniProt P11229)
T1 sequence (P11229 1-460): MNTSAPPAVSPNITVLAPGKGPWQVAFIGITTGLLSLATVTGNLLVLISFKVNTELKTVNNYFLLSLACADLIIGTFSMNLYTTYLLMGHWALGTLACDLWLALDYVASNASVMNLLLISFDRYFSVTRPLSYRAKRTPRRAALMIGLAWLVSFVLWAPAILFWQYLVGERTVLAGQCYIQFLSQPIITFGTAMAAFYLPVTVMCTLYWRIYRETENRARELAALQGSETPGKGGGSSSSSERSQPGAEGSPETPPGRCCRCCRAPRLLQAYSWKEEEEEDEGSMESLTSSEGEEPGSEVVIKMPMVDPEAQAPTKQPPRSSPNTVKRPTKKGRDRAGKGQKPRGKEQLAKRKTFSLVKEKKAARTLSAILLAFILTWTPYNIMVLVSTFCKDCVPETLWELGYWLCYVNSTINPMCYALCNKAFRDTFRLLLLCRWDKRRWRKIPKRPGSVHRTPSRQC
Test: mAChR M1 cell-based functional assay (calcium mobilization, PAM activity)
Conditions: CHO-K1 cells expressing hM1, calcium flux (Fluo-4); for Emax: potentiation of EC20 acetylcholine response; for EC50: concentration-dependent increase in the EC20 acetylcholine response
Source text: Chinese hamster ovary (CHO-K1) cells stably expressing rat (r)M1 were purchased from the American Type Culture Collection and cultured according to their indicated protocol. CHO cells stably expressing human (h)M2, hM3, and hM5 were described previously (Levey, et al., 1991); hM1 and hM4 cDNAs were purchased from Missouri S&T cDNA Resource; rM4 cDNA was provided by T. I. Bonner (National Institutes of Health, Bethesda, Md.). rM2 and rM3 were cloned from a rat brain cDNA library and sequence verified. hM1, rM2, rM3, hM4, and rM4 cDNAs were used to stably transfect CHO-K1 cells purchased from the American Type Culture Collection using Lipofectamine 2000. To make stable rM2, hM2, rM3, hM4, and rM4 cell lines for use in calcium mobilization assays, these cells also were stably transfected with a chimeric G-protein (Gqi5) (provided by B. R. Conklin, University of California, San Francisco) using Lipofectamine 2000. rM1, hM1, rM3, hM3, rM5, and hM5 cells were grown in Ham's F-12 medium containing 10% heat-inactivated fetal bovine serum (FBS), 20 mM HEPES, and 50 μg/mL G418 sulfate. rM2-Gqi5, hM2-Gqi5, and hM4-Gqi5 cells were grown in the same medium also containing 500 μg/mL Hygromycin B. Stable rM4-Gqi5 cells were grown in DMEM containing 10% heat-inactivated FBS, 20 mM HEPES, 400 μg/mL G418 sulfate, and 500 μg/mL Hygromycin B.
For high throughput measurement of agonist-evoked increases in intracellular calcium, CHO-K1 cells stably expressing muscarinic receptors were plated in growth medium lacking G418 and hygromycin at 15,000 cells/20 μL/well in Greiner 384-well black-walled, tissue culture (TC)-treated, clear-bottom plates (VWR). Cells were incubated overnight at 37° C. and 5% CO2. The next day, cells were washed using an ELX 405 (BioTek) with four washes (80 μL) of assay buffer then aspirated to 20 μL. Next, 20 μL of 16 μM Fluo-4/acetoxymethyl ester (Invitrogen, Carlsbad, Calif.) prepared as a 2.3 mM stock in DMSO and mixed in a 1:1 ratio with 10% (w/v) Pluronic F-127 and diluted in assay buffer was added to the wells and the cell plates were incubated for 50 min at 37° C. and 5% CO2. Dye was removed by washing with the ELX 405 (four 80 μL washes of assay buffer) then aspirated to 20 μL. Compound master plates were formatted in an 11 point CRC format (1:3 dilutions) in 100% DMSO with a starting concentration of 10 mM using the BRAVO liquid handler (Agilent). Test compound CRCs were then transferred to daughter plates (240 nL) using the Echo acoustic plate reformatter (Labcyte, Sunnyvale, Calif.) and then diluted into assay buffer (40 μL) to a 2× stock using a Thermo Fisher Combi (Thermo Fisher Scientific, Waltham, Mass.).
Calcium flux was measured using the Functional Drug Screening System (FDSS) 6000 (Hamamatsu Corporation, Tokyo, Japan) as an increase in the fluorescent static ratio. Compounds were applied to cells (20 μL, 2×) using the automated system of the FDSS 6000 at 4 s into the 300 s protocol and the data were collected at 1 Hz. At 144 s into the 300s protocol, 10 μL of an EC20 concentration of the muscarinic receptor agonist acetylcholine was added (5×), followed by the addition of 12 μL an EC80 concentration of acetylcholine at the 230 s time point (5×). Agonist activity was analyzed as a concentration-dependent increase in calcium mobilization upon compound addition. Emax values for agonist activity are expressed relative to the maximum for acetylcholine. Positive allosteric modulator activity was analyzed as a concentration-dependent increase in the EC20 acetylcholine response. Antagonist activity was analyzed as a concentration-dependent decrease in the EC80 acetylcholine response. Concentration-response curves were generated using a four-parameter logistical equation in XLfit curve fitting software (IDBS, Bridgewater, N.J.) for Excel (Microsoft, Redmond, Wash.) or Prism (GraphPad Software, Inc., San Diego, Calif.). […]

Emax | EC50 | Structure (SMILES)
67% | – | Cn1cc(-c2ccc(Cc3cc(C(=O)N[C@@H]4CC[C@H]4O)c4ncnn4c3)cn2)cn1 [compound 16, N-[(1R,2R)-2-hydroxycyclobutyl]-6-[[6-(1-methylpyrazol-4-yl)-3-pyridyl]methyl]-[1,2,4]triazolo[1,5-a]pyridine-8-carboxamide]
74% | 1.71 µM | O=C(N[C@H]1CCCC[C@@H]1O)c1cc(Cc2ccc(-n3cccn3)cc2)cn2cnnc12 [compound 19, N-[(1S,2S)-2-hydroxycyclohexyl]-6-[(4-pyrazol-1-ylphenyl)methyl]-[1,2,4]triazolo[4,3-a]pyridine-8-carboxamide]
90% | 1.36 µM | Cn1cc(-c2ccc(Cc3cc(C(=O)N[C@H]4CCOC[C@@H]4O)c4nccn4c3)cc2)cn1 [compound 65, N-[(3R,4S)-3-hydroxytetrahydropyran-4-yl]-6-[[4-(1-methylpyrazol-4-yl)phenyl]methyl]imidazo[1,2-a]pyridine-8-carboxamide]
83% | 0.903 µM | Cn1cc(-c2ccc(Cc3cc(C(=O)N[C@H]4CCOC[C@@H]4O)c4ncnn4c3)cn2)cn1 [compound 12, N-[(3R,4S)-3-hydroxytetrahydropyran-4-yl]-6-[[6-(1-methylpyrazol-4-yl)-3-pyridyl]methyl]-[1,2,4]triazolo[1,5-a]pyridine-8-carboxamide]
72% | 0.0322 µM | Cc1c(Cc2ccc(-c3cnn(C)c3)cc2F)cc(C(=O)N[C@H]2CCOC[C@@H]2O)c2nccn12 [compound 56, 6-[[2-fluoro-4-(1-methylpyrazol-4-yl)phenyl]methyl]-N-[(3R,4S)-3-hydroxytetrahydropyran-4-yl]-5-methyl-imidazo[1,2-a]pyridine-8-carboxamide]
83% | 3.54 µM | Cn1ccc(-c2ccc(Cc3cc(C(=O)N[C@H]4CCCC[C@@H]4O)c4ncnn4c3)cn2)n1 [compound 37, N-[(1S,2S)-2-hydroxycyclohexyl]-6-[[6-(1-methylpyrazol-3-yl)-3-pyridyl]methyl]-[1,2,4]triazolo[1,5-a]pyridine-8-carboxamide]
52% | 2.54 µM | O=C(N[C@H]1CCCCC[C@@H]1O)c1cc(Cc2ccc(-n3cccn3)nc2)cn2ccnc12 [compound 61, N-[(1S,2S)-2-hydroxycycloheptyl]-6-[(6-pyrazol-1-yl-3-pyridyl)methyl]imidazo[1,2-a]pyridine-8-carboxamide]
88% | 2.54 µM | Cn1ccc(-c2ccc(Cc3cc(C(=O)N[C@H]4CCC[C@@H]4O)c4ncnn4c3)cc2)n1 [compound 11, N-[(1S,2S)-2-hydroxycyclopentyl]-6-[[4-(1-methylpyrazol-3-yl)phenyl]methyl]-[1,2,4]triazolo[1,5-a]pyridine-8-carboxamide]
70% | 0.217 µM | Cn1cc(-c2ccc(Cc3cc(C(=O)N[C@H]4CCCC[C@@H]4O)c4nccn4c3)c(F)c2)cn1 [compound 54, 6-[[2-fluoro-4-(1-methylpyrazol-4-yl)phenyl]methyl]-N-[(1S,2S)-2-hydroxycyclohexyl]imidazo[1,2-a]pyridine-8-carboxamide]
53% | – | Cn1ccc(-c2ccc(Cc3cc(C(=O)NC4CCOCC4)c4ncnn4c3)cc2)n1 [compound 8, 6-[[4-(1-methylpyrazol-3-yl)phenyl]methyl]-N-tetrahydropyran-4-yl-[1,2,4]triazolo[1,5-a]pyridine-8-carboxamide]
85% | 1.12 µM | Cn1cc(-c2ccc(Cc3cc(C(=O)N[C@H]4CCOC[C@@H]4O)c4ncnn4c3)cc2)cn1 [compound 28, N-[(3R,4S)-3-hydroxytetrahydropyran-4-yl]-6-[[4-(1-methylpyrazol-4-yl)phenyl]methyl]-[1,2,4]triazolo[1,5-a]pyridine-8-carboxamide]
69% | 0.507 µM | Cn1ccc(-c2cc(F)c(Cc3cc(C(=O)N[C@H]4CCOC[C@@H]4O)c4nccn4c3)c(F)c2)n1 [compound 38, 6-[[2,6-difluoro-4-(1-methylpyrazol-3-yl)phenyl]methyl]-N-[(3R,4S)-3-hydroxytetrahydropyran-4-yl]imidazo[1,2-a]pyridine-8-carboxamide]
76% | 0.229 µM | Cn1cc(-c2ccc(Cc3cc(C(=O)N[C@H]4CCCC[C@@H]4O)c4ncnn4c3)c(F)c2)cn1 [compound 48, 6-[[2-fluoro-4-(1-methylpyrazol-4-yl)phenyl]methyl]-N-[(1S,2S)-2-hydroxycyclohexyl]-[1,2,4]triazolo[1,5-a]pyridine-8-carboxamide]
47% | 1.01 µM | O=C(N[C@H]1CCCC[C@@H]1O)c1cc(Cc2ccc(-n3cccn3)nc2)cn2ccnc12 [compound 60, N-[(1S,2S)-2-hydroxycyclohexyl]-6-[(6-pyrazol-1-yl-3-pyridyl)methyl]imidazo[1,2-a]pyridine-8-carboxamide]
76% | 1.2 µM | Cn1ccc(-c2cc(F)c(Cc3cc(C(=O)N[C@H]4CCOC[C@@H]4O)c4ncnn4c3)c(F)c2)n1 [compound 41, 6-[[2,6-difluoro-4-(1-methylpyrazol-3-yl)phenyl]methyl]-N-[(3R,4S)-3-hydroxytetrahydropyran-4-yl]-[1,2,4]triazolo[1,5-a]pyridine-8-carboxamide]
47% | – | O=C(NC1CCOCC1)c1cc(Cc2ccc(-n3cccn3)cc2)cn2ncnc12 [compound 36, 6-[(4-pyrazol-1-ylphenyl)methyl]-N-tetrahydropyran-4-yl-[1,2,4]triazolo[1,5-a]pyridine-8-carboxamide]
87% | 0.604 µM | O=C(N[C@H]1CCCC[C@@H]1O)c1cc(Cc2ccc(-n3cccn3)cc2)cn2ncnc12 [compound 33, N-[(1S,2S)-2-hydroxycyclohexyl]-6-[(4-pyrazol-1-ylphenyl)methyl]-[1,2,4]triazolo[1,5-a]pyridine-8-carboxamide]
67% | 4.82 µM | O=C(N[C@H]1CCOC[C@@H]1O)c1cc(Cc2ccc(-n3cccn3)nc2)cn2ccnc12 [compound 63, N-[(3R,4S)-3-hydroxytetrahydropyran-4-yl]-6-[(6-pyrazol-1-yl-3-pyridyl)methyl]imidazo[1,2-a]pyridine-8-carboxamide]
43% | 2.24 µM | Cc1cn2cc(Cc3ccc(-c4ccn(C)n4)cc3)cc(C(=O)N[C@H]3CCOC[C@@H]3O)c2n1 [compound 21, N-[(3R,4S)-3-hydroxytetrahydropyran-4-yl]-2-methyl-6-[[4-(1-methylpyrazol-3-yl)phenyl]methyl]imidazo[1,2-a]pyridine-8-carboxamide]
